Laboratory results taken from patent US7291499B2, “Transformed cell, method of screening anti-aging agent and anti-aging agent” (priority 2001, dated 2007).

Experiments:
[1] = system: phosphorylation type p38 protein (active type p38 protein); test: Western blotting of phosphorylated state of p38 protein; assay type: cell-based, human; conditions: young cell (42 PD), 30 μmol//L anisomycin for 30 minutes, positive control, versus untreated young cell
Source text: In this reference example, the phosphorylated state of p38 protein in young and senescent cells of the human normal fibroblast WI-38 was confirmed by a Western blotting respectively using an antibody capable of detecting total p38 protein and another antibody capable of specifically detecting a phosphorylation type p38 protein (namely active type p38 protein) alone.
Specifically, young and senescent cells of the human normal fibroblast WI-38 (about 5×10^6 cells) cultured in the same manner as in Reference Example 1(1) were respectively dissolved in 0.1 ml of a buffer solution for dissolution [lysis buffer; 150 mmol//L sodium chloride, 0.5% NP-40, 50 mmol//L Tris-HCl (pH 7.5), 3 mmol//L EDTA, 3 mmol//L EGTA, 3 mmol//L glycerophosphate, […] Na3VO4, 1 μg/ml leupeptin and 1 mmol//L phenylmethanesulfonyl fluoride (PMSF)].
Subsequently, each extraction sample corresponding to 30 μg as the amount of protein was separated by an SDS polyacrylamide gel electrophoresis in the usual way and then transferred on a membrane (Immobilon-P membrane; manufactured by Millipore). After subjecting the membrane to a blocking treatment using a commercially available blocking agent (Block Ace; manufactured. by Dainippon Pharmaceutical), a primary antibody reaction and a secondary antibody reaction were carried out in order. […]

[2] = system: WI-38 cell with activated Raf kinase region-estrogen receptor fusion gene; test: β-galactosidase positive cells in tamoxifen-inducible activated Raf cellular senescence system; assay type: cell-based, human; conditions: for inhibition of the increase of cellular senescence-specific β-galactosidase positive cell induced by the activation of Raf: Raf activated by 10 nM tamoxifen, 25 μM inhibitor added simultaneously
Experimental: (§1) This is a result of fusing an estrogen receptor gene with a sequence coding for the kinase region of activated Raf gene.
(§2) (1) In accordance with the aforementioned method, induction of cellular senescence was tested by carrying out gene transfer into the WI-38 cell and thereby constructing a system which can induce cellular senescence by the administration of tamoxifen.
(§3) The results are shown in FIG. 12, FIG. 13, FIG. 14 and FIG. 15.

[3] = system: WI-38 cell with activated Raf kinase region-estrogen receptor fusion gene; test: Cell growth in tamoxifen-inducible activated Raf cellular senescence system; assay type: cell-based, human; conditions: for inhibition of the termination of cell growth induced by the activation of Raf: Raf activated by 10 nM tamoxifen, 25 μM inhibitor added simultaneously
Experimental: as §1, §2, §3

[4] = system: human normal fibroblast WI-38; test: Ratio of S phase cell by FACS analysis (BrdU labeling) in young and senescent WI-38 cells; assay type: cell-based
Experimental: Also, the ratio of S phase cells in each treated group was determined by FACS analysis in accordance with the procedure described in the following Example 2(3-a), and the results shown in FIG. 4. The symbol “+” in FIG. 4 means that it was treated with 10 μmol//L of SB203580.
[…] Next, the cells were fixed with 70% ethanol and treated with 2 mol//L hydrochloric acid for 30 minutes. Subsequently, they were neutralized with 0.1 mol//L sodium borate and then allowed to react with FITC-labeled anti-BrdU antibody (manufactured by BECTON DICKINSON) for 1 hour. After completion of the reaction, the cells were washed with a washing buffer [PBS containing 0.5% Tween 20 and 1% bovine serum albumin (BSA)] and suspended in a PBS solution containing 5 μg/ml ProPidium Iodide (PI). The samples were analyzed by a two dimensional flow cytometry.

[5] = system: human normal fibroblast WI-38; test: Cell morphology and cellular senescence-specific β-galactosidase activity in WI-38 cells; assay type: cell-based; conditions: senescent cell (61 times of division), SB203580-treated
Experimental: Specifically, young and senescent cells of the human normal fibroblast WI-38 were respectively washed with PBS and then fixed using 0.5% glutaraldehyde aqueous solution. After the fixation, the cells were soaked in a staining solution [prepared by dissolving 1 mg/ml of X-gal (5-bromo-4-chloro-3-indolyl-[…]), 5 mmol//L potassium ferrocyanide, 5 mmol//L potassium feriocyanide and 1 mmol//L magnesium chloride in phosphate buffered saline (PBS; pH 6.0)] and allowed to react at 37° C. for 5 hours or more.
In addition, cell morphology and β-galactosidase activity in each treated group were analyzed in accordance with the procedure described in Reference Example 1(2).

[6] = system: MKK6 gene- or MKK6EE gene-introduced human normal fibroblast WI-38; conditions: 10 μmol//L SB203580 from the 4th day after infection, 6 days culture
Experimental: As the target cell, young cell (42 PD; 5×10^5 cells/10 cm dish) of the human normal fibroblast WI-38 was cultured for 8 hours in the virus supernatant to which polybrene (final concentration=8 μg/ml) had been added. The virus supernatant was once removed, and then fresh virus supernatant [containing polybrene (final concentration=8 μg/ml)] was again added, followed by the culturing for 8 hours. Each of the infection-treated cells was cultured for 3 days in DMEM containing puromycin (2.5 μg/ml).
On the 4th day after carrying out the infection, the medium was changed to DMEM containing 2.5% dimethyl sulfoxide (DMSO), followed by the culturing for 6 days. […] The relative number of cells during these 6 days was measured every other day using a commercially available kit [Cell Counting Kit (WST-1 assay), manufactured. by DOJINDO].
Measurement and calculation of the relative cell number were specifically carried out by the following method. […] After the reaction, measurement was carried out using a plate reader (measuring wave length=450 nm). These were measured on three samples on each of the measuring days (on the 0th, 2nd, 4th and 6th days) during the growth period, and the average values were used as the data of respective measuring days. The relative number of cells of measured values on respective measuring days was calculated by defining the average of measured values on the 0th day as 1. […]

[7] = system: human normal fibroblast WI-38; test: Cell growth curve (WST-1 relative cell number) of young and senescent WI-38 cells with p38 protein inhibitor; assay type: cell-based
Source text: In the example, effect of a p38 protein inhibitor SB203580 was compared using the same young cell (42 times of division) and senescent cell (61 times of division) of the human normal fibroblast WI-38 used in Reference Example 1. Specifically, the same procedure of the following Example 2 (2) was repeated, except that a young cell (42 times of division) and a senescent cell (61 times of division) of the human normal fibroblast WI-38 cultured in the same manner in Reference Example 1(1) were used instead of the transformed cell.
In FIG. 3, the polygonal line a is cell growth curve of the young cell in the presence of SB203580, the polygonal line b is cell growth curve of the young cell in the absence of SB203580, the polygonal line c is cell growth curve of the senescent cell in the presence of SB203580 and the polygonal line d is cell growth curve of the senescent cell in the absence of SB203580. The symbol “+SB” in FIG. 3 means that it was treated with 10 μmol//L of SB203580.
The relative number of cells during these 6 days was measured every other day using a commercially available kit [Cell Counting Kit (WST-1 assay), manufactured. by DOJINDO].
The WST-1 assay is a method to know indirectly degree of cell growth ability with the use of the calorimetric determination of the activity of dehydration reactions wherein intracellular lactate dehydrogenase and the like are related.
Measurement and calculation of the relative cell number were specifically carried out by the following method. That is, 1,000 cells per each well of a 96 well plate were precultured for 24 hours. […] After the reaction, measurement was carried out using a plate reader (measuring wave length=450 nm). These were measured on three samples on each of the measuring days (on the 0th, 2nd, 4th and 6th days) during the growth period, and the average values were used as the data of respective measuring days. The relative number of cells of measured values on respective measuring days was calculated by defining the average of measured values on the 0th day as 1.

[8] = system: MKK6 gene- or MKK6EE gene-introduced human normal fibroblast WI-38; test: Ratio of β-galactosidase positive cells in MKK6 or MKK6EE gene-introduced transformed cell; assay type: cell-based; conditions: 10 μmol//L SB203580, culturing period of 6 days
Experimental: Specifically, young and senescent cells of the human normal fibroblast WI-38 were respectively washed with PBS and then fixed using 0.5% glutaraldehyde aqueous solution. After the fixation, the cells were soaked in a staining solution [prepared by dissolving 1 mg/ml of X-gal (5-bromo-4-chloro-3-indolyl-β-galactosidase), 5 mmol//L potassium ferrocyanide, 5 mmol//L potassium feriocyanide and 1 mmol//L magnesium chloride in phosphate buffered saline (PBS; pH 6.0)] and allowed to react at 37° C. for 5 hours or more.
Next, the procedure described in Reference Example 1 (2) was repeated, except that the two species of the transformed cell of the present invention and one species of a control cell wherein the vector alone was introduced, obtained by repeating the same procedure of Example 2(1), (cells after a culturing period of 6 days in each case; SB203580-untreated cells) and the two species of the transformed cell of the present invention and one species of a control cell wherein the vector alone was introduced, obtained by repeating the same procedure of Example 2(2), (cells after a culturing period of 6 days in each case; SB203580-treated cells) were used. […]

[9] = induction of cellular senescence via Raf-estrogen receptor fusion
[10] = young cell (42 times of division), 10 μmol//L SB203580, same in presence or absence

## COc1ccc(C[C@H]2NC[C@H](O)[C@H]2OC(C)=O)cc1 [anisomycin]
[1]
  active type p38 protein amount: increased

## CC/C(=C(\c1ccccc1)c1ccc(OCCN(C)C)cc1)c1ccccc1 [tamoxifen]
[2]; [9]
  tamoxifen concentration at which increase of cellular senescence-specific β-galactosidase positive cell was observed: ≥ 1 nM
[3]; [9]
  tamoxifen concentration at which termination of cell growth was observed: ≥ 1 nM

## COc1cccc(-c2cc(=O)c3ccccc3o2)c1N [PD98059]
[2]
  inhibition of the increase of cellular senescence-specific β-galactosidase positive cell induced by the activation of Raf: partially inhibited
[3]
  inhibition of the termination of cell growth induced by the activation of Raf: partially inhibited

## C[S+]([O-])c1ccc(-c2nc(-c3ccc(F)cc3)c(-c3ccncc3)[nH]2)cc1 (stereo not shown) [SB203580, 4-[4-(4-fluorophenyl)-2-[4-(methylsulfinyl)phenyl]-1H-imidazol-5-yl]-pyridine]
[4]; senescent cell (61 times of division), 10 μmol//L SB203580, 72 hours of BrdU labeling, untreated about 5%
  S phase cell: about 25%
[4]; [10]
  S phase cell: about 20%
[5]
  cellular senescence-specific β-galactosidase-positive degree: low
  morphology of the flat cytoplasm: became thin
[2]
  inhibition of the increase of cellular senescence-specific β-galactosidase positive cell induced by the activation of Raf: more strongly than the PD98059
[3]
  inhibition of the termination of cell growth induced by the activation of Raf: more strongly than the PD98059
[6]
  growth inhibitory effect by the MKK6 gene or MKK6EE gene: inhibited
[7]; senescent cell (61 PD) of WI-38, illustrative data not shown
  anti-aging activity upon senescent cell: showed the anti-aging activity
[7]; senescent cell (61 times of division), 10 μmol//L SB203580
  cell growth in comparison with the untreated case: accelerated growth
[7]; [10]
  doubling time: about 2 days
[8]
  increase of the cellular senescence-specific β-galactosidase positive cells: inhibited
